Assays:
[1] = CMC by pyrene fluorescence spectroscopy; format: physicochemical; details: pyrene I/III peak ratio, aqueous solution, 25 °C
Excerpt: Pyrene is a common fluorescence probe, widely employed to investigate the aggregation state of surfactant in aqueous solution, as its emission properties are strongly influenced by the polarity of the microenvironment. Specifically, a decrease in the ratio between I and III peaks is observed when the hydrophobicity increases in the surroundings of pyrene as a result of the aggregation of surfactants into micelles or supramolecular aggregates. […] As is common for surfactants, the concentration at which aggregation in aqueous solution occurs is strongly dependent on the hydrophilicity/hydrophobicity balance between the surfactant head and tail. Specifically, changes in the hydrophobicity of the surfactant tail exert a marked effect on the self-assembling properties for a surfactant bearing the same polar head. On the contrary, the variation in the sugar head has a minor effect.
The pyrene emissions in the surfactant solutions at different concentrations (0.03–4 mM) were measured using a LS 55 fluorescence spectrometer (PerkinElmer, Waltar, MA, USA) equipped with a thermostatic bath HAAKE C25P (Artisan Scientific Corporation, Champaign, IL, USA). For the analyses, three microliters of the pyrene solution in CH3OH (2 μM) were added to each of the aqueous surfactant solutions. The excitation wavelength was 334 nm. Ten acquisitions were recorded for each solution in the range of 200–700 nm at a temperature of 25 °C. The peak intensity I (λ = 372 nm) to III (λ = 384 nm) ratio was plotted against the surfactant concentrations. CMC values were calculated from the center of the sigmoid by fitting the experimental data through the Boltzmann nonlinear regression (GraphPad Prism 6 software) according to the following equation: bottom+(top−bottom)/1+10^[(logCMC−x)hill slope] where the top and bottom are the plateau of the curve and the hill slope is the steepness.

[2] = CMC by dynamic light scattering (counts); format: physicochemical; details: counts vs concentration, 25 °C
Excerpt: The DLS from the counts analysis confirmed the self-assembling properties of the amphiphiles analyzed as evidenced by the fluorescence measurements. Figure 2b reports the variation in the scattering intensities to the detector (kCps) as a function of the surfactant concentration.
As unimers, instead, the hydrodynamic sizes of the surfactant molecules were too small and the scattering properties of the solutions were not markedly different from those of the medium.
The scattering intensity to the detector (counts, kCps) was measured for different concentrations (0.03–4 mM) of surfactant solution using a Malvern Zetasizer Nano S (Malvern, Worcestershire, UK). Measurements were performed at 25 °C at a fixed laser position (4.65) and attenuation (11). CMC values were calculated from counts versus concentration plots by fitting the experimental data using the segmental linear regression model (GraphPad Prism 6 software).

Calu-3 cells = assay: MTT cell viability assay; format: cell-based, human; details: 3 h incubation
Procedure: All the compounds were tested to evaluate their cytotoxicity profile on Calu-3 cells. The MTT colorimetric assay, based on the reduction of a yellow tetrazolium salt MTT to purple formazan crystals by metabolically active cells, was used to measure the cellular metabolic activity as an indicator of cell viability, proliferation, and cytotoxicity. Indeed, the viable cells contain NAD(P)H-dependent oxidoreductase enzymes, which reduce MTT to formazan. […] Moreover, the LDH release assay, used to assess the level of plasma membrane damage in a cell population, was performed to evaluate the cytotoxicity of the sugar esters. LDH is in fact a stable enzyme found in all cell types and is rapidly released into the cell culture medium following damage to the plasma membrane that occurs after cell damage or death. […]
Calu-3 cells were seeded on 96-well plates at ~50,000 cells per well and were incubated to attain at least 80% confluence before the experiment. Prior to the assay, the culture medium was removed and replaced with different concentrations of surfactants (0.03 to 4.5 mM for the fluorescence spectroscopy and DLS analysis) in Hank’s balanced salt solution (HBSS). […] The supernatant was collected for the LDH assay and the cell viability was measured with the MTT assay according to the manufacturers’ instructions, with at least three repeats for each sample.

Calu-3 monolayers [3] = assay: TEER measurement; format: cell-based, human; details: Calu-3 cells; for effect on TEER: surfactant 4 mM in HBSS, 3 h; for decrease in TEER with respect to basal value: surfactant 4 mM, reversible
Procedure: TEER studies were performed in Calu-3 cells (Figure 4) to preliminarily evaluate the potential use of the synthesized sugar esters as absorption enhancers. […] .
Calu-3 cells were seeded on filter inserts Transwell® at ~200,000 cells per insert. The cells were cultured in Dulbecco Modified Eagle Medium (DMEM)-F12 to confluence for around three weeks using an air–liquid culture condition. The culture medium was changed every 48 h. […] Baseline TEER was recorded following 30 min of equilibration in HBSS. […] The cells were incubated with the samples or HBSS as a control for 3 h. During this period, TEER was measured every 30 min. The samples were then removed and the cells were washed extensively using HBSS. Culture medium was added to the basolateral chamber and a further measurement of TEER was taken at 24 h following sample application to establish TEER reversibility. The change in TEER was reported as a percentage relative to the baseline value.

Calu-3 monolayers [4] = tested on: Calu-3 monolayers; design: method as in PMID 29970849; details: Calu-3 cells, non-cytotoxic concentration, reversible; cited from earlier work
Calu-3 monolayers [5] = assay: FITC-dextran in vitro cell permeability study; details: surfactant 4 mM
Procedure: Cell monolayers with TEER over 800 Ω were used in these studies to ensure the integrity of the monolayers. FITC-dextran MW 4000 was used as a model macromolecular drug. Prior to sample application, the culture medium was removed, and the cell layers were washed with HBSS. The cells were equilibrated in HBSS for 30 min. Sucrose ester solutions at 4 mM and dextran at a final concentration of 0.5 mg/mL in HBSS were applied to the apical side of the cells. HBSS was added to the basolateral side. A basolateral solution of 100 µL was collected at 30, 60, 90, 120, 150, and 180 min after sample application and replaced with an equivalent volume of fresh HBSS. The amount of dextran permeating the cell monolayers in 3 h was quantified by spectrofluorometric analysis.

Compound | Fluorescence Spectroscopy CMC [1] [mM] | Dynamic Light Scattering CMC [2] [mM] | cell viability (MTT), lowest level reached (Calu-3 cells; 0.03 to 4.5 mM) [%] | effect on TEER (Calu-3 monolayers [3]) | TEER, % of the baseline value after decrease (Calu-3 monolayers [4]) | decrease in TEER with respect to basal value (Calu-3 monolayers [3]) | cell viability (MTT) (Calu-3 cells; highest tested concentration of 4.5 mM) | permeation enhancing effect on FITC-dextran Papp (Calu-3 monolayers [5]; Calu-3 cell layers, FITC-dextran MW 4000 0.5 mg/mL) | increase in FITC-dextran permeability vs control (Calu-3 monolayers [5]; Calu-3 cells, non-statistically significant vs control)
Lactose phenyl acetate [URB1419] | 0.753 ± 0.084 | 0.729 ± 0.075 | ≥ 70 | moderate action | – | – | – | – | –
CCCCCCCCCCCC(=O)OCC1OC(OC2C(CO)OC(O)C(O)C2O)C(O)C(O)C1O (stereo not shown) [6′-lactose laurate] | – | – | – | – | ~ 25% | – | – | – | –
O=C(Cc1ccc(-c2ccccc2)cc1)OC[C@H]1O[C@H](O[C@]2(CO)O[C@H](CO)[C@@H](O)[C@@H]2O)[C@H](O)[C@@H](O)[C@@H]1O [URB1482, β-D-fructofuranosyl 6-O-[2-(4-Phenyl)phenylethanoyl]-α-D-glucopyranoside] | 0.095 ± 0.015 | 0.181 ± 0.026 | – | moderate action | – | – | – | – | –
Lactose p-biphenyl acetate [URB1421] | 0.110 ± 0.017 | 0.259 ± 0.063 | – | moderate action | – | – | – | – | –
Lactose p-phenyl benzoate [URB1420] | 0.270 ± 0.015 | 0.344 ± 0.034 | – | most effective surfactants for decreasing TEER | – | ~ 30% | – | – | –
O=C(Cc1ccccc1)OC[C@H]1O[C@H](O[C@]2(CO)O[C@H](CO)[C@@H](O)[C@@H]2O)[C@H](O)[C@@H](O)[C@@H]1O [URB1480, β-D-fructofuranosyl 6-O-(2-Phenylethanoyl)-α-D-glucopyranoside] | 0.861 ± 0.076 | 0.791 ± 0.045 | – | only poorly affected TEER | – | – | – | – | –
O=C(OC[C@H]1O[C@H](O[C@]2(CO)O[C@H](CO)[C@@H](O)[C@@H]2O)[C@H](O)[C@@H](O)[C@@H]1O)c1ccc(-c2ccccc2)cc1 [URB1481, β-D-fructofuranosyl 6-O-[2-(4-Phenyl)benzoyl]-α-D-glucopyranoside] | 0.305 ± 0.091 | 0.329 ± 0.023 | – | most effective surfactants for decreasing TEER | – | ~ 30% | above 70% | more prominent permeation enhancing effect | three-fold increase

Reference: publication PMC9964938, “Synthesis and Properties of Sucrose- and Lactose-Based Aromatic Ester Surfactants as Potential Drugs Permeability Enhancers” (Pharmaceuticals, 2023)
